Assay type in all cases: functional
The test system of test [1] is Haemophilus influenzae. Nature of the test: Antibacterial activity against Haemophilus influenzae 2762.
In test [2] the test system is Staphylococcus aureus. Nature of the test: Antibacterial activity against Staphylococcus aureus 29213.
Test [3] has as its system Staphylococcus aureus. Nature of the test: Antibacterial activity against Staphylococcus aureus 33591.
The subject of test [4] is Staphylococcus epidermidis. Description: Antibacterial activity against Staphylococcus epidermidis 14990.
In test [5] the test system is Staphylococcus epidermidis. Nature of the test: Antibacterial activity against Staphylococcus epidermidis f50654.
In test [6] the test system is Enterococcus faecalis. Description: Antibacterial activity against Enterococcus faecalis 29212.
Test [7] concerns Enterococcus faecalis. Description: Antibacterial activity against Enterococcus faecalis bc11148-2.
In the next test the test system is Streptococcus pyogenes. Description: Antibacterial activity against Streptococcus pyogenes 8668.
In test [8] the test system is Streptococcus pneumoniae. Nature of the test: Antibacterial activity against Streptococcus pneumoniae 49619.
In test [9] the test system is Streptococcus pneumoniae. Nature of the test: Antibacterial activity against Streptococcus pneumoniae 297-749.
The subject of test [10] is Streptococcus pneumoniae. Description: Antibacterial activity against Streptococcus pneumoniae 280-962.
Test [11] relates to Streptococcus pneumoniae. Description: Antibacterial activity against Streptococcus pneumoniae Erm 6849.
Test [12] deals with Streptococcus pneumoniae. Description: Antibacterial activity against Streptococcus pneumoniae Mef 5654.
Test [13] concerns Streptococcus pneumoniae. Description: Antibacterial activity against Streptococcus pneumoniae Mef S 3427.
Test [14] deals with Haemophilus influenzae. Nature of the test: Antibacterial activity against Haemophilus influenzae 49247.

Each structure is given as a SMILES string. Values after ≈ are worked out from the molar mass of the structure shown.

This note sets out measurements from ChEMBL document CHEMBL1138190, “Synthesis and antibacterial activity of novel C12 vinyl ketolides” (J Med Chem, 2006).

Take `C=C[C@]12OC(=O)N(CCCCn3ccc4c(N)cccc43)[C@@H]1[C@@H](C)C(=O)[C@H](C)C[C@@](C)(OC)[C@H](O[C@@H]1O[C@H](C)C[C@H](N(C)C)[C@H]1O)[C@@H](C)C(=O)[C@@H](C)C(=O)O[C@@H]2CC`: the MIC against Haemophilus influenzae [1] was 3.13 µg/mL (≈ 3.86 µM); with Staphylococcus aureus [2], 0.1 µg/mL (≈ 0.123 µM); in the test with Staphylococcus aureus [3], > 50 µg/mL; in test [4], 0.1 µg/mL (≈ 0.123 µM); in [5] it was 0.78 µg/mL (≈ 0.962 µM); with Enterococcus faecalis [6], ≤ 0.05 µg/mL. The MIC is 0.625 µg/mL (≈ 0.771 µM) in the test on Enterococcus faecalis [7]; ≤ 0.05 µg/mL in the test on Streptococcus pyogenes; ≤ 0.05 µg/mL in the test on Streptococcus pneumoniae [8]; ≤ 0.05 µg/mL in the test with Streptococcus pneumoniae [9]; ≤ 0.05 µg/mL in the test with Streptococcus pneumoniae [10]; 3.13 µg/mL (≈ 3.86 µM) with Streptococcus pneumoniae [11]. Besides, the figures for the MIC in the test with Streptococcus pneumoniae [12], against Streptococcus pneumoniae [13] and against Haemophilus influenzae [14] were 0.78 µg/mL (≈ 0.962 µM), 0.1 µg/mL (≈ 0.123 µM) and 3.13 µg/mL (≈ 3.86 µM), respectively.
Consider `C=C[C@]12OC(=O)N(CCCCn3cnc4ncccc43)[C@@H]1[C@@H](C)C(=O)[C@H](C)C[C@@](C)(OC)[C@H](O[C@@H]1O[C@H](C)C[C@H](N(C)C)[C@H]1O)[C@@H](C)C(=O)[C@@H](C)C(=O)O[C@@H]2CC`, for which the MIC in the test on Haemophilus influenzae [1] was 0.78 µg/mL (≈ 0.977 µM); with Staphylococcus aureus [2], 0.2 µg/mL (≈ 0.251 µM); in the test with Staphylococcus aureus [3] it was > 50 µg/mL; in test [4], 0.1 µg/mL (≈ 0.125 µM); in [5], 0.4 µg/mL (≈ 0.501 µM); with Enterococcus faecalis [6] it was 0.1 µg/mL (≈ 0.125 µM). Moreover, the MIC is 0.78 µg/mL (≈ 0.977 µM) in the test on Enterococcus faecalis [7]; ≤ 0.05 µg/mL in the test with Streptococcus pyogenes; ≤ 0.05 µg/mL in the test with Streptococcus pneumoniae [8]; ≤ 0.05 µg/mL against Streptococcus pneumoniae [9]; ≤ 0.05 µg/mL in the test on Streptococcus pneumoniae [10]; 3.13 µg/mL (≈ 3.92 µM) in the test on Streptococcus pneumoniae [11]. The MIC worked out at 1.56 µg/mL (≈ 1.95 µM) against Streptococcus pneumoniae [12], 0.2 µg/mL (≈ 0.251 µM) with Streptococcus pneumoniae [13] and 1.56 µg/mL (≈ 1.95 µM) against Haemophilus influenzae [14].
As for `C=C[C@]12OC(=O)N(CCCCn3ccc4nc(C(C)=O)ccc43)[C@@H]1[C@@H](C)C(=O)[C@H](C)C[C@@](C)(OC)[C@H](O[C@@H]1O[C@H](C)C[C@H](N(C)C)[C@H]1O)[C@@H](C)C(=O)[C@@H](C)C(=O)O[C@@H]2CC`, the MIC against Haemophilus influenzae [1] is 0.2 µg/mL (≈ 0.238 µM); against Staphylococcus aureus [2], 0.1 µg/mL (≈ 0.119 µM); against Staphylococcus aureus [3], > 50 µg/mL; in test [4], 0.1 µg/mL (≈ 0.119 µM); in [5], 0.1 µg/mL (≈ 0.119 µM); with Enterococcus faecalis [6], 0.2 µg/mL (≈ 0.238 µM). In addition, the MIC against Enterococcus faecalis [7] was 6.25 µg/mL (≈ 7.45 µM); against Streptococcus pyogenes, ≤ 0.05 µg/mL; against Streptococcus pneumoniae [8], ≤ 0.05 µg/mL; in the test on Streptococcus pneumoniae [9] it was ≤ 0.05 µg/mL; against Streptococcus pneumoniae [10], ≤ 0.05 µg/mL; with Streptococcus pneumoniae [11], 3.13 µg/mL (≈ 3.73 µM). The values for the MIC with Streptococcus pneumoniae [12], against Streptococcus pneumoniae [13] and in the test with Haemophilus influenzae [14] were 0.78 µg/mL (≈ 0.93 µM), 0.2 µg/mL (≈ 0.238 µM) and 3.13 µg/mL (≈ 3.73 µM), respectively.
For the compound `C=C[C@]12OC(=O)N(CCCCc3cnc(-c4cccnc4)s3)[C@@H]1[C@@H](C)C(=O)[C@H](C)C[C@@](C)(OC)[C@H](O[C@@H]1O[C@H](C)C[C@H](N(C)C)[C@H]1O)[C@@H](C)C(=O)[C@@H](C)C(=O)O[C@@H]2CC`, the MIC against Haemophilus influenzae [1] is 1.56 µg/mL (≈ 1.85 µM); against Staphylococcus aureus [2], 0.1 µg/mL (≈ 0.119 µM); against Staphylococcus aureus [3] it was > 50 µg/mL; in test [4], 0.1 µg/mL (≈ 0.119 µM); in test [5] it was 0.1 µg/mL (≈ 0.119 µM); against Enterococcus faecalis [6], ≤ 0.05 µg/mL. For the same compound, the MIC is 1.56 µg/mL (≈ 1.85 µM) in the test with Enterococcus faecalis [7]; ≤ 0.05 µg/mL against Streptococcus pyogenes; ≤ 0.05 µg/mL with Streptococcus pneumoniae [8]; ≤ 0.05 µg/mL against Streptococcus pneumoniae [9]; ≤ 0.05 µg/mL with Streptococcus pneumoniae [10]; 1.56 µg/mL (≈ 1.85 µM) in the test on Streptococcus pneumoniae [11]. The MIC was 0.4 µg/mL (≈ 0.476 µM) with Streptococcus pneumoniae [12], ≤ 0.05 µg/mL in the test with Streptococcus pneumoniae [13] and 3.13 µg/mL (≈ 3.72 µM) against Haemophilus influenzae [14].
For the compound `C=C[C@]12OC(=O)N(CCN(C)Cc3ccc(-c4cccnc4)s3)[C@@H]1[C@@H](C)C(=O)[C@H](C)C[C@@](C)(OC)[C@H](O[C@@H]1O[C@H](C)C[C@H](N(C)C)[C@H]1O)[C@@H](C)C(=O)[C@@H](C)C(=O)O[C@@H]2CC`, the MIC in the test with Haemophilus influenzae [1] is 3.13 µg/mL (≈ 3.66 µM); in the test with Staphylococcus aureus [2], 0.2 µg/mL (≈ 0.234 µM); with Staphylococcus aureus [3] it was > 50 µg/mL; in [4], 0.1 µg/mL (≈ 0.117 µM); in test [5], 0.2 µg/mL (≈ 0.234 µM); against Enterococcus faecalis [6], 0.1 µg/mL (≈ 0.117 µM). The MIC is 0.4 µg/mL (≈ 0.468 µM) with Enterococcus faecalis [7]; ≤ 0.05 µg/mL in the test with Streptococcus pyogenes; ≤ 0.05 µg/mL against Streptococcus pneumoniae [8]; ≤ 0.05 µg/mL against Streptococcus pneumoniae [9]; ≤ 0.05 µg/mL against Streptococcus pneumoniae [10]; 0.2 µg/mL (≈ 0.234 µM) in the test on Streptococcus pneumoniae [11]. Moreover, the MIC in the test with Streptococcus pneumoniae [12] was 0.78 µg/mL (≈ 0.912 µM); in the test on Streptococcus pneumoniae [13] it was 0.1 µg/mL (≈ 0.117 µM); against Haemophilus influenzae [14], 6.25 µg/mL (≈ 7.31 µM).
Take `C=C[C@]12OC(=O)N(CCCCn3cnc(-c4ccc(NC)nc4)c3)[C@@H]1[C@@H](C)C(=O)[C@H](C)C[C@@](C)(OC)[C@H](O[C@@H]1O[C@H](C)C[C@H](N(C)C)[C@H]1O)[C@@H](C)C(=O)[C@@H](C)C(=O)O[C@@H]2CC`: the MIC with Haemophilus influenzae [1] was 0.78 µg/mL (≈ 0.914 µM); in the test on Staphylococcus aureus [2], 0.1 µg/mL (≈ 0.117 µM); against Staphylococcus aureus [3], > 50 µg/mL; in test [4], 0.2 µg/mL (≈ 0.234 µM); in test [5] it was 0.1 µg/mL (≈ 0.117 µM); with Enterococcus faecalis [6], 0.1 µg/mL (≈ 0.117 µM). In addition, the MIC with Enterococcus faecalis [7] is 0.78 µg/mL (≈ 0.914 µM); against Streptococcus pyogenes it was ≤ 0.05 µg/mL; against Streptococcus pneumoniae [8], ≤ 0.05 µg/mL; against Streptococcus pneumoniae [9] it was ≤ 0.05 µg/mL; in the test with Streptococcus pneumoniae [10], ≤ 0.05 µg/mL; in the test on Streptococcus pneumoniae [11], 0.4 µg/mL (≈ 0.469 µM). Also, the figures for the MIC against Streptococcus pneumoniae [12], in the test on Streptococcus pneumoniae [13] and against Haemophilus influenzae [14] were 1.56 µg/mL (≈ 1.83 µM), 0.2 µg/mL (≈ 0.234 µM) and 3.13 µg/mL (≈ 3.67 µM), respectively.
